From patent US20100022491A1, “4-HYDROXY-2-OXO-2,3-DIHYDRO-1,3-BENZOTHIAZOL-7YL COMPOUNDS FOR MODULATION OF B2-ADRENORECEPTOR ACTIVITY” (ASTRAZENECA AB, priority 2006, published 2010)
Structures can show the parent of a compound that is named as a salt.

Biological target: T1, recombinant human α1D receptor (Homo sapiens, UniProt P25100)
T1 construct: expressed in transfected cells; host or cells: HEK293
T1 sequence (P25100 1-572): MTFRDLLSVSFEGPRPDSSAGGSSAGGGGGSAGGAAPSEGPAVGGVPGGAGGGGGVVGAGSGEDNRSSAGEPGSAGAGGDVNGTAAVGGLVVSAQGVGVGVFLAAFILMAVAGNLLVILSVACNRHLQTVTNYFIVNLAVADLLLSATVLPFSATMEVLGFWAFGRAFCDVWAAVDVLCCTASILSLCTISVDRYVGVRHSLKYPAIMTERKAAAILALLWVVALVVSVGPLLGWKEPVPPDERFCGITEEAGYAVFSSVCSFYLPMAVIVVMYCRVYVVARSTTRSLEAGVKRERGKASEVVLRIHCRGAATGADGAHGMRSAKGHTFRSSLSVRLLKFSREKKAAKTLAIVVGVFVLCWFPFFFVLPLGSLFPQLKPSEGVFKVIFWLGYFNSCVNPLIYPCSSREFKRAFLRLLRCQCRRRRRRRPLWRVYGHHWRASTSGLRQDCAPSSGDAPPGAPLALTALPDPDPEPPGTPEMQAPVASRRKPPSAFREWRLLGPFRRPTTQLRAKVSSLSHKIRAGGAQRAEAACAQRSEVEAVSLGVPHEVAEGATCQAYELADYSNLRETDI
Test: Adrenergic α1D selectivity binding assay ([3H]-prazosin)
Conditions: inhibition of [3H]-prazosin (0.3 nM) binding, HEK293 membranes; for IC50: read-out: α1 bind pIC50 (converted)
Method in brief: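 Displacement of [3H]-prazosin (0.3 nM) from recombinant human α1D receptor in HEK293-cell membranes, 2 h at room temperature, pH 7.4 HEPES/EDTA/gelatin buffer. Filtration and scintillation counting, non-specific binding set with 10 μM BMY7378; four-parameter logistic fit gives pIC50.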

Row | IC50 [nM] | SMILES | α1 bind pIC50
1 |  | O=C(CCNCCc1cc(F)cc(F)c1)N(CCNCCc1ccc(O)c2[nH]c(=O)sc12)C1CCCCC1 [Example 92, N-Cyclohexyl-N^3-[2-(3,5-difluorophenyl)ethyl]-N-(2-{[2-(4-hydroxy-2-oxo-2,3-dihydro-1,3-benzothiazol-7-yl)ethyl]amino}ethyl)-β-alaninamide dihydrobromide salt] | 6.6
2 | 100 | O=C(CCNCCc1c(F)cccc1F)N(CCNCCc1ccc(O)c2[nH]c(=O)sc12)C1CCCCCC1 [Example 84, N^1-Cycloheptyl-N^3-[2-(2,6-difluorophenyl)ethyl]-N^1-(2-{[2-(4-hydroxy-2-oxo-2,3-dihydro-1,3-benzothiazol-7-yl)ethyl]amino}ethyl)-β-alaninamide bis-trifluoroacetic acid salt] | 
3 | 398 | O=C(CCNCCc1ccc(Cl)s1)N(CCNCCc1ccc(O)c2[nH]c(=O)sc12)C1CCCCC1 [Example 72, N^3-[2-(5-Chloro-2-thienyl)ethyl]-N^1-cyclohexyl-N^1-(2-{[2-(4-hydroxy-2-oxo-2,3-dihydro-1,3-benzothiazol-7-yl)ethyl]amino}ethyl)-β-alaninamide bis-trifluoroacetic acid salt] | 
4 | 316 | O=C(CCNCCc1ccc(Cl)cc1)N(CCNCCc1ccc(O)c2[nH]c(=O)sc12)C1CCCCC1 [Example 13, N^3-[2-(4-Chlorophenyl)ethyl]-N-cyclohexyl-N-(2-{[2-(4-hydroxy-2-oxo-2,3-dihydro-1,3-benzothiazol-7-yl)ethyl]amino}ethyl)-β-alaninamide bis-trifluoroacetic acid salt] | 
5 | 158 | O=C(CCNCCc1ccc2c(c1)OCO2)N(CCNCCc1ccc(O)c2[nH]c(=O)sc12)C1CCCCC1 [Example 76, N^3-[2-(1,3-Benzodioxol-5-yl)ethyl]-N^1-cyclohexyl-N^1-(2-{[2-(4-hydroxy-2-oxo-2,3-dihydro-1,3-benzothiazol-7-yl)ethyl]amino}ethyl)-β-alaninamide bis-trifluoroacetic acid salt] | 
6 | 316 | O=C(CCNCCc1cccc(OC(F)F)c1)N(CCNCCc1ccc(O)c2[nH]c(=O)sc12)C1CCCCCC1 [Example 54, N-Cycloheptyl-N^3-{2-[3-(difluoromethoxy)phenyl]ethyl}-N^1-(2-{[2-(4-hydroxy-2-oxo-2,3-dihydro-1,3-benzothiazol-7-yl)ethyl]amino}ethyl)-β-alaninamide bis-trifluoroacetic acid salt] | 
7 | 12.6 | O=C(CCNCCc1ccccc1)N(CCNCCc1ccc(O)c2[nH]c(=O)sc12)C1Cc2ccccc2C1 [Example 41, N^1-(2,3-Dihydro-1H-inden-2-yl)-N^1-(2-{[2-(4-hydroxy-2-oxo-2,3-dihydro-1,3-benzothiazol-7-yl)ethyl]amino}ethyl)-N^3-(2-phenylethyl)-β-alaninamide bis-trifluoroacetic acid salt] | 
8 | 501 | C[C@H](CNCCC(=O)N(CCNCCc1ccc(O)c2[nH]c(=O)sc12)CC(C)(C)C)c1ccccc1 [Example 11, N-(2,2-Dimethylpropyl)-N-(2-{[2-(4-hydroxy-2-oxo-2,3-dihydro-1,3-benzothiazol-7-yl)ethyl]amino}ethyl)-N^3-[(2S)-2-phenylpropyl]-β-alaninamide bis-trifluoroacetic acid salt] | 
9 | 50.1 | CCCC[C@@H](C)N(CCNCCc1ccc(O)c2[nH]c(=O)sc12)C(=O)CCNCCc1ccccc1 [Example 101, N-(2-{[2-(4-Hydroxy-2-oxo-2,3-dihydro-1,3-benzothiazol-7-yl)ethyl]amino}ethyl)-N-[(1R)-1-methylpentyl]-N^3-(2-phenylethyl)-β-alaninamide bis-trifluoroacetic acid salt] | 
10 | 501 | O=C(CCNCCc1cccc(Cl)c1)N(CCNCCc1ccc(O)c2[nH]c(=O)sc12)C1CCC(F)(F)CC1 [Example 47, N^3-[2-(3-Chlorophenyl)ethyl]-N^1-(4,4-difluorocyclohexyl)-N^1-(2-{[2-(4-hydroxy-2-oxo-2,3-dihydro-1,3-benzothiazol-7-yl)ethyl]amino}ethyl)-β-alaninamide bis-trifluoroacetic acid salt] | 
11 | 158 | O=C(CCNCCc1cccc(F)c1)N(CCNCCc1ccc(O)c2[nH]c(=O)sc12)C1CCCCCC1 [Example 36, N-Cycloheptyl-N^3-[2-(3-fluorophenyl)ethyl]-N-(2-{[2-(4-hydroxy-2-oxo-2,3-dihydro-1,3-benzothiazol-7-yl)ethyl]amino}ethyl)-β-alaninamide bis-trifluoroacetic acid salt] | 
12 | 251 | Cc1ccccc1CCNCCC(=O)N(CCNCCc1ccc(O)c2[nH]c(=O)sc12)C1CCOCC1 [Example 27, N-(2-{[2-(4-Hydroxy-2-oxo-2,3-dihydro-1,3-benzothiazol-7-yl)ethyl]amino}ethyl)-N^3-[2-(2-methylphenyl)ethyl]-N-(tetrahydro-2H-pyran-4-yl)-β-alaninamide bis-trifluoroacetic acid salt] | 
13 | 126 | O=C(CCNCCc1ccc(F)c(F)c1)N(CCNCCc1ccc(O)c2[nH]c(=O)sc12)C1CCCCCC1 [Example 53, N^1-Cycloheptyl-N^1-[2-(3,4-difluorophenyl)ethyl]-N^1-(2-{[2-(4-hydroxy-2-oxo-2,3-dihydro-1,3-benzothiazol-7-yl)ethyl]amino}ethyl)-β-alaninamide bis-trifluoroacetic acid salt] | 
14 | 251 | O=C(CCNC[C@@H](O)c1ccccc1)N(CCNCCc1ccc(O)c2[nH]c(=O)sc12)C1CCCCC1 [Example 74, N^1-Cyclohexyl-N^1-(2-{[2-(4-hydroxy-2-oxo-2,3-dihydro-1,3-benzothiazol-7-yl)ethyl]amino}ethyl)-N^3-[(2S)-2-hydroxy-2-phenylethyl]-β-alaninamide bis-trifluoroacetic acid salt] | 
15 | 316 | O=C(CCNCCc1ccc(F)cc1)N(CCNCCc1ccc(O)c2[nH]c(=O)sc12)CC12CC3CC(CC(C3)C1)C2 [Example 61, N^1-(1-Adamantylmethyl)-N^3-[2-(4-fluorophenyl)ethyl]-N^1-(2-{[2-(4-hydroxy-2-oxo-2,3-dihydro-1,3-benzothiazol-7-yl)ethyl]amino}ethyl)-β-alaninamide bis-trifluoroacetic acid salt] | 
16 | 126 | O=C(CCNCCc1ccccc1)N(CCNCCc1ccc(O)c2[nH]c(=O)sc12)C1CCCC1 [Example 2, N-Cyclopentyl-N-(2-{[2-(4-hydroxy-2-oxo-2,3-dihydro-1,3-benzothiazol-7-yl)ethyl]amino}ethyl)-N^3-(2-phenylethyl)-β-alaninamide bis-trifluoroacetic acid salt] | 
